From patent EP4603105A1, “PHARMACEUTICAL COMPOSITION CONTAINING CYCLIC COMPOUND HAVING SELECTIVE KRAS INHIBITORY EFFECT AGAINST HRAS AND NRAS” (CHUGAI SEIYAKU KABUSHIKI KAISHA, priority 2022, dated 2024)

Assays:
[1] = biological target: GDP-bound KRAS wild-type protein (Homo sapiens, UniProt P01116); assay: Binding to KRAS by surface plasmon resonance (SPR), dissociation constant KD; conditions: 1:1 binding model
Method in brief: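 Recombinant RAS proteins bearing a biotinylated Avi tag and loaded with GDP served as the captured ligand, recaptured fresh every cycle. Binding responses were referenced to an uncoated surface and a buffer-only blank cycle. Dissociation constants were obtained by 1:1 model fitting at 30°C.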

[2] = biological target: GDP-bound NRAS wild-type protein (Homo sapiens, UniProt P01111); assay: Binding to NRAS by surface plasmon resonance (SPR), KD and KD ratio to KRAS; conditions: ratio of KD for GDP-bound NRAS wild-type protein to KD for KRAS
Chain of GDP-bound NRAS wild-type protein (P01111 whole entry): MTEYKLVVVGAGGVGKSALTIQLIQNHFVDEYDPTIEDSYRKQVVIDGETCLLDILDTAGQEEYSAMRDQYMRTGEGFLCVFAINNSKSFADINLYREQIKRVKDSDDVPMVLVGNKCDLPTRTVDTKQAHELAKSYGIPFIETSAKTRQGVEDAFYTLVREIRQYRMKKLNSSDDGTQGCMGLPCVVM
Method in brief: (§1)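 GDP-bound biotin-Avi RAS captured at ~100–300 RU, 30°C, pH 7.4 HBS containing 10 µM GDP, 10 mM MgCl2, 1 mM DTT, 0.01% Tween 20 and 4% DMSO. KD by 1:1 fitting.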

HRAS wild-type protein = HRAS wild-type protein (Homo sapiens, UniProt P01112); assay: Binding to HRAS by surface plasmon resonance (SPR), KD and KD ratio to KRAS; conditions: ratio of KD for HRAS wild-type protein to KD for KRAS
Chain of HRAS wild-type protein (P01112 whole entry): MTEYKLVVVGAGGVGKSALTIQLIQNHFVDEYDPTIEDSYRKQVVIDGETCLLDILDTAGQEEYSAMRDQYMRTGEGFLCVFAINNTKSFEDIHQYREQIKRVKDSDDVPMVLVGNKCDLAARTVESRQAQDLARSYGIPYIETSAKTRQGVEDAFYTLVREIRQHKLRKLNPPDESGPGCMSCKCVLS
Method in brief: as §1

[3] = test system: human lung cancer strain NCI-H441; assay: NCI-H441 cell proliferation inhibitory activity (CellTiter-Glo, 4 days); format: cell-based; conditions: NCI-H441 cells, 4 days, read-out: NCl-H441 IC50
Method in brief: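 Readout: […] after the ATP-based reagent. Compound: serial dilutions in dimethyl sulfoxide.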

Chain of GDP-bound KRAS wild-type protein (P01116 1-188 isoform P01116-2): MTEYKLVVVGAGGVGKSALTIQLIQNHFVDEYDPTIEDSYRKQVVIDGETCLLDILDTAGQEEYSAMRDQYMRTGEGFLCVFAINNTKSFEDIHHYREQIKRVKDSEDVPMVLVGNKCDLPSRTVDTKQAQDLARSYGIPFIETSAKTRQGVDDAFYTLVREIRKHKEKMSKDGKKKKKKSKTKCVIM

| Structure (SMILES) | Kd [1] | NRAS /KRAS [2] | HRAS /KRAS (HRAS wild-type protein) | IC50 [3] |
| --- | --- | --- | --- | --- |
| CCO[C@@H]1C[C@H]2C(=O)NC3(CC(C)(C)C3)C(=O)N(C)[C@@H](C3CCCC3)C(=O)N(C)[C@H](C(=O)N(C)CC)CC(=O)N(C)[C@@H](COC)C(=O)N[C@@H]([C@@H](C)CC)C(=O)N(C)CC(=O)N(C)[C@H]3C/C=C\CCN(C3=O)[C@@H](Cc3ccc(C)cc3)C(=O)N(C)CC(=O)N[C@@H](CCc3ccc(C(F)(F)F)c(Cl)c3)C(=O)N2C1 [PP2507] | 0.061 nM | AA (a compound having 20 or more is denoted as AA) | A (a compound having 10 or more and less than 20 is denoted as A) | 8.9 nM |
| CCC[C@H]1C(=O)N[C@@H](CC(C)C)C(=O)N(C2CC2)CC(=O)N(C)[C@H]2C/C=C\CCN(C2=O)[C@@H](Cc2ccc(C)cc2)C(=O)N(C)CC(=O)N[C@@H](CCc2cc(F)c(C(F)(F)F)c(F)c2)C(=O)N2C[C@H](OCC)C[C@H]2C(=O)NC2(CC(C)(C)C2)C(=O)N(C)[C@@H](C2CCCC2)C(=O)N(C)[C@H](C(=O)N(C)C)CC(=O)N1C [PP2508] | 3.4 nM | A (a compound having 10 or more and less than 20 is denoted as A) | B (a compound having 3 or more and less than 10 is denoted as B) | 124 nM |
| CCC(CC)[C@H]1C(=O)N(C)[C@H](C(=O)N(C)C)CC(=O)N(C)[C@@H](COC)C(=O)N[C@@H]([C@@H](C)CC)C(=O)N(C2CC2)CC(=O)N(C)[C@H]2C/C=C\CCN(C2=O)[C@@H](Cc2ccc(C)cc2)C(=O)N(C)CC(=O)N[C@@H](CCc2ccc(Cl)c(Cl)c2)C(=O)N2C[C@H](OC(C)C)C[C@H]2C(=O)NC2(CC(C)(C)C2)C(=O)N1C [PP2509] | 2.6 nM | AA (a compound having 20 or more is denoted as AA) | A (a compound having 10 or more and less than 20 is denoted as A) | 91.3 nM |
| CCC[C@H]1C(=O)N[C@@H](CC(C)C)C(=O)N(C2CC2)CC(=O)N(C)[C@H]2C/C=C\CCN(C2=O)[C@@H](Cc2ccc(C)cc2)C(=O)N(C)CC(=O)N[C@@H](CCc2ccc(C(F)(F)F)c(OC)c2)C(=O)N2C[C@H](OCC)C[C@H]2C(=O)NC2(CC(C)(C)C2)C(=O)N(C)[C@@H](C2CCCC2)C(=O)N(C)[C@H](C(=O)N(C)C)CC(=O)N1C [PP2510] | 3.9 nM | A (a compound having 10 or more and less than 20 is denoted as A) | B (a compound having 3 or more and less than 10 is denoted as B) | 180 nM |
| CC[C@H](C)[C@@H]1NC(=O)[C@H](COC)N(C)C(=O)C[C@@H](C(=O)N(C)C)N(C)C(=O)[C@H](C2CCCC2)N(C)C(=O)C2(CC(C)(C)C2)NC(=O)[C@@H]2C[C@@H](OC(C)C)CN2C(=O)[C@H](CCc2cc(F)c(C(F)(F)F)c(F)c2)NC(=O)CN(C)C(=O)[C@H](CC2CCCCC2)N2CC/C=C\C[C@@H](C2=O)N(C)C(=O)CN(C2CC2)C1=O [PP2511] | 0.95 nM | A (a compound having 10 or more and less than 20 is denoted as A) | A (a compound having 10 or more and less than 20 is denoted as A) | 107 nM |
| C#CCN1CC(=O)N(C)[C@H]2C/C=C\CCN(C2=O)[C@@H](Cc2ccc(C)cc2)C(=O)N(C)CC(=O)N[C@@H](CCc2cc(F)c(C(F)(F)F)c(F)c2)C(=O)N2C[C@H](OCC)C[C@H]2C(=O)NC2(CC(C)(C)C2)C(=O)N(C)[C@@H](C2CCCC2)C(=O)N(C)[C@H](C(=O)N(C)C)CC(=O)N(C)[C@@H](CCC)C(=O)N[C@@H](CC(C)C)C1=O [PP2512] | 2 nM | A (a compound having 10 or more and less than 20 is denoted as A) | A (a compound having 10 or more and less than 20 is denoted as A) | 109 nM |
| CC[C@H](C)[C@@H]1NC(=O)[C@H](COC)N(C)C(=O)C[C@@H](C(=O)N(C)C)N(C)C(=O)[C@H](C2CCCC2)N(C)C(=O)C2(CC(C)(C)C2)NC(=O)[C@@H]2C[C@@H](OC(C)C)CN2C(=O)[C@H](CCc2ccc(Cl)c(Cl)c2)NC(=O)CN(C)C(=O)[C@H](CC2CCCCC2)N2CC/C=C\C[C@@H](C2=O)N(C)C(=O)CN(C2CC2)C1=O [PP2513] | 2.6 nM | A (a compound having 10 or more and less than 20 is denoted as A) | A (a compound having 10 or more and less than 20 is denoted as A) | 303 nM |
| C#CCN1CC(=O)N(C)[C@H]2C/C=C\CCN(C2=O)[C@@H](Cc2ccc(C)cc2)C(=O)N(C)CC(=O)N[C@@H](CCc2ccc(C(F)(F)F)c(OC)c2)C(=O)N2C[C@H](OCC)C[C@H]2C(=O)NC2(CC(C)(C)C2)C(=O)N(C)[C@@H](C2CCCC2)C(=O)N(C)[C@H](C(=O)N(C)C)CC(=O)N(C)[C@@H](CCC)C(=O)N[C@@H](CC(C)C)C1=O [PP2514] | 2.4 nM | A (a compound having 10 or more and less than 20 is denoted as A) | B (a compound having 3 or more and less than 10 is denoted as B) | 86.8 nM |
| CCC(CC)[C@H]1C(=O)N(C)[C@H](C(=O)N(C)C)CC(=O)N(C)[C@@H](COC)C(=O)N[C@@H]([C@@H](C)CC)C(=O)N(C2CC2)CC(=O)N(C)[C@H]2C/C=C\CCN(C2=O)[C@@H](CC2CCCCC2)C(=O)N(C)CC(=O)N[C@@H](CCc2cc(F)c(C(F)(F)F)c(F)c2)C(=O)N2C[C@H](OC(C)C)C[C@H]2C(=O)NC2(CC(C)(C)C2)C(=O)N1C [PP2515] | 5.1 nM | A (a compound having 10 or more and less than 20 is denoted as A) | A (a compound having 10 or more and less than 20 is denoted as A) | 384 nM |
| CCC[C@H]1C(=O)N[C@@H](CC(C)C)C(=O)N(CC)CC(=O)N(C)[C@H]2C/C=C\CCN(C2=O)[C@@H](Cc2ccc(C)cc2)C(=O)N(C)CC(=O)N[C@@H](CCc2cc(F)c(C(F)(F)F)c(F)c2)C(=O)N2C[C@H](OCC)C[C@H]2C(=O)NC2(CC(C)(C)C2)C(=O)N(C)[C@@H](C2CCCC2)C(=O)N(C)[C@H](C(=O)N(C)C)CC(=O)N1C [PP2516] | 2.9 nM | A (a compound having 10 or more and less than 20 is denoted as A) | B (a compound having 3 or more and less than 10 is denoted as B) | 124 nM |
| CCC[C@H]1C(=O)N[C@@H](CC(C)C)C(=O)N(CCOC)CC(=O)N(C)[C@H]2C/C=C\CCN(C2=O)[C@@H](Cc2ccc(C)cc2)C(=O)N(C)CC(=O)N[C@@H](CCc2cc(F)c(C(F)(F)F)c(F)c2)C(=O)N2C[C@H](OCC)C[C@H]2C(=O)NC2(CC(C)(C)C2)C(=O)N(C)[C@@H](C2CCCC2)C(=O)N(C)[C@H](C(=O)N(C)C)CC(=O)N1C [PP2520] | 3.3 nM | A (a compound having 10 or more and less than 20 is denoted as A) | A (a compound having 10 or more and less than 20 is denoted as A) | 210 nM |
| CCC[C@H]1C(=O)N[C@@H]([C@@H](C)CC)C(=O)N(C2CC2)CC(=O)N(C)[C@H]2C/C=C\CCN(C2=O)[C@@H](CC2CCC(F)(F)CC2)C(=O)N(C)CC(=O)N[C@@H](CCc2ccc(Cl)c(Cl)c2)C(=O)N2C[C@H](OC(C)C)C[C@H]2C(=O)NC2(CC(C)(C)C2)C(=O)N(C)[C@@H](C2CCCC2)C(=O)N(C)[C@H](C(=O)N(C)C)CC(=O)N1C [PP2521] | 2.8 nM | A (a compound having 10 or more and less than 20 is denoted as A) | A (a compound having 10 or more and less than 20 is denoted as A) | 129 nM |
| CCC(CC)[C@H]1C(=O)N(C)[C@H](C(=O)N(C)C)CC(=O)N(C)[C@@H](COC)C(=O)N[C@@H]([C@@H](C)CC)C(=O)N(C2CC2)CC(=O)N(C)[C@H]2C/C=C\CCN(C2=O)[C@@H](CC2CCC(F)(F)CC2)C(=O)N(C)CC(=O)N[C@@H](CCc2ccc(Cl)c(Cl)c2)C(=O)N2C[C@H](OC(C)C)C[C@H]2C(=O)NC2(CC(C)(C)C2)C(=O)N1C [PP2525] | 3.8 nM | AA (a compound having 20 or more is denoted as AA) | A (a compound having 10 or more and less than 20 is denoted as A) | 142 nM |
| C#CCN1CC(=O)N(C)[C@H]2C/C=C\CCN(C2=O)[C@@H](Cc2ccc(C)cc2)C(=O)N(C)CC(=O)N[C@@H](CCc2ccc(C(F)(F)F)c(Cl)c2)C(=O)N2C[C@H](OCC)C[C@H]2C(=O)NC2(CC(C)(C)C2)C(=O)N(C)[C@@H](C2CCCC2)C(=O)N(C)[C@H](C(=O)N(C)C)CC(=O)N(C)[C@@H](CCC)C(=O)N[C@@H](CC(C)C)C1=O [PP2526] | 4 nM | A (a compound having 10 or more and less than 20 is denoted as A) | B (a compound having 3 or more and less than 10 is denoted as B) | 54.5 nM |
